Measurements reported in BindingDB's records for doi:10.1016/s0960-894x(03)00789-3 (Wyeth Research, 2003).
pIC50: −log10 of the molar value.

Biological target: Human cytomegalovirus protease (assemblin, UL80)
Test: In vitro inhibitory activity against HCMV (human cytomegalovirus) protease using scintillation proximity assay

Row | SMILES | pIC50
1 | COc1ccc(-c2nnc3nc(C)c(C)c(=O)n3n2)cc1 [3-(4-Methoxy-phenyl)-7,8-dimethyl-pyrimido[1,2-b][1,2,4,5]tetrazin-6-one] | 6.30
2 | Cc1ccc(-c2nnc3nc(C)c(C)c(=O)n3n2)cc1 [7,8-Dimethyl-3-p-tolyl-pyrimido[1,2-b][1,2,4,5]tetrazin-6-one] | 6.52
3 | Cc1nc2nnc(-c3ccccc3)nn2c(=O)c1C [7,8-Dimethyl-3-phenyl-pyrimido[1,2-b][1,2,4,5]tetrazin-6-one] | 6.40
4 | Cc1nc2nnc(C(C)(C)C)nn2c(=O)c1C [3-tert-Butyl-7,8-dimethyl-pyrimido[1,2-b][1,2,4,5]tetrazin-6-one] | 6.22
5 | Cc1nc2nnc(-c3ccc([N+](=O)[O-])cc3)nn2c(=O)c1C [7,8-Dimethyl-3-(4-nitro-phenyl)-pyrimido[1,2-b][1,2,4,5]tetrazin-6-one] | 5.77
6 | Cc1nnc2nc(C)c(C)c(=O)n2n1 [3,7,8-Trimethyl-pyrimido[1,2-b][1,2,4,5]tetrazin-6-one] | 6.52
7 | Cc1nc2nnc(C(c3ccccc3)c3ccccc3)nn2c(=O)c1C [3-Benzhydryl-7,8-dimethyl-pyrimido[1,2-b][1,2,4,5]tetrazin-6-one] | 5.77
8 | Cc1nc2nncnn2c(=O)c1C [7,8-Dimethyl-pyrimido[1,2-b][1,2,4,5]tetrazin-6-one] | 7.00
